Laboratory results published in paper PMC3958311 (EMBO Molecular Medicine, 2014).
≈ marks a conversion by molar mass, not a printed value. Read-outs that look alike come from different tables or passages of the source.

What was measured:
M. tuberculosis H37Rv [1] = assay: MIC by resazurin reduction microplate assay (REMA); type: cell-based, Mycobacterium tuberculosis; conditions: Mycobacterium tuberculosis; for MIC99: read-out: MIC99
M. tuberculosis H37Rv [2] = assay: Drug susceptibility testing on solid Löwenstein-Jensen medium; type: cell-based; conditions: Mycobacterium tuberculosis; H37Rv, Sensitive; solid Löwenstein-Jensen medium, 21-28 days; read-out: MIC
[3] = tested on: M. tuberculosis clinical isolate 7384; assay: as above; type: cell-based; conditions: Mycobacterium tuberculosis; […]; solid Löwenstein-Jensen medium; read-out: MIC
[4] = tested on: M. tuberculosis clinical isolate 5253; assay: as above; type: cell-based; conditions: Mycobacterium tuberculosis; […]; solid Löwenstein-Jensen medium; read-out: MIC
[5] = tested on: M. tuberculosis clinical isolate 5055; assay: as above; type: cell-based; conditions: Mycobacterium tuberculosis; […]; solid Löwenstein-Jensen medium; read-out: MIC
[6] = tested on: M. tuberculosis clinical isolate 6374; assay: as above; type: cell-based; conditions: Mycobacterium tuberculosis; […]; solid Löwenstein-Jensen medium; read-out: MIC
[7] = tested on: M. tuberculosis clinical isolate 6412; assay: as above; type: cell-based; conditions: Mycobacterium tuberculosis; […]; solid Löwenstein-Jensen medium; read-out: MIC
[8] = tested on: M. tuberculosis clinical isolate 6448; assay: as above; type: cell-based; conditions: Mycobacterium tuberculosis; […]; solid Löwenstein-Jensen medium; read-out: MIC
[9] = tested on: M. tuberculosis clinical isolate 6418; assay: as above; type: cell-based; conditions: Mycobacterium tuberculosis; […]; solid Löwenstein-Jensen medium; read-out: MIC
[10] = tested on: M. tuberculosis clinical isolate 6341; assay: as above; type: cell-based; conditions: Mycobacterium tuberculosis; […]; solid Löwenstein-Jensen medium; read-out: MIC
[11] = tested on: M. tuberculosis clinical isolate 4328; assay: as above; type: cell-based; conditions: Mycobacterium tuberculosis; […]; solid Löwenstein-Jensen medium; read-out: MIC
M. bolletii 1999-0888 = assay: MIC99 by REMA; type: cell-based; conditions: Mycobacteroides abscessus, 19990888; M. bolletii 1999-0888; read-out: MIC99
M. bovis BCG Pasteur = assay: microbe, parasite or virus in culture; type: cell-based, Mycobacterium bovis BCG; conditions: Mycobacterium tuberculosis variant bovis BCG, BCG
M. smegmatis mc^2155 = assay: MIC99 by REMA; type: cell-based, Mycobacterium smegmatis; conditions: Mycolicibacterium smegmatis; M. smegmatis mc^2155; read-out: MIC99
M. vaccae ATCC 15483 = assay: MIC99 by REMA; type: cell-based; conditions: Mycolicibacterium vaccae, ATCC15483; M. vaccae ATCC 15483; read-out: MIC99
M. massiliense 2005-0484 = assay: MIC99 by REMA; type: cell-based; conditions: Mycobacteroides abscessus, 20050484; M. massiliense 2005-0484; read-out: MIC99
M. smegmatis GM22 = assay: microbe, parasite or virus in culture; type: cell-based; conditions: Mycolicibacterium smegmatis; for MIC99: M. smegmatis GM22, overproduces NfnB nitroreductase, read-out: MIC99
C. diphtheriae DSM 44123 = assay: MIC99 by REMA; type: cell-based, Corynebacterium diphtheriae; conditions: Corynebacterium diphtheriae, DSM44123; C. diphtheriae DSM 44123; read-out: MIC99
M. marinum Strain M [12] = assay: MIC99 by REMA; type: cell-based, Mycobacterium marinum; conditions: Mycobacterium marinum; M. marinum Strain M; read-out: MIC99
C. glutamicum ATCC 13032 = assay: MIC99 by REMA; type: cell-based, Corynebacterium glutamicum; conditions: Corynebacterium glutamicum, ATCC13032; C. glutamicum ATCC 13032; read-out: MIC99
M. abscessus 2005-0524 = assay: MIC99 by REMA; type: cell-based; conditions: Mycobacteroides abscessus, 20050524; M. abscessus 2005-0524; read-out: MIC99
M. avium ATCC 15769 = assay: MIC99 by REMA; type: cell-based; conditions: Mycobacterium avium, ATCC15769; M. avium ATCC 15769; read-out: MIC99
M. tuberculosis MDR_CHUV = assay: MIC99 by REMA; type: cell-based, Mycobacterium tuberculosis; conditions: Mycobacterium tuberculosis; read-out: MIC99
M. bovis BCG BN2 = type: cell-based, Mycobacterium bovis BCG
in vitro [13] = conditions: mouse, microsomes
in vitro [14] = conditions: human, microsomes
M. tuberculosis H37Rv [15] = type: in vivo, BALB/c mice
[16] = molecular target: T1, purified recombinant M. smegmatis NfnB (Mycolicibacterium smegmatis, UniProt A0R6D0); assay: NfnB-mediated nitroreduction followed by LC-MS; type: biochemical
T1 construct: made in house
T1 sequence (A0R6D0 whole entry): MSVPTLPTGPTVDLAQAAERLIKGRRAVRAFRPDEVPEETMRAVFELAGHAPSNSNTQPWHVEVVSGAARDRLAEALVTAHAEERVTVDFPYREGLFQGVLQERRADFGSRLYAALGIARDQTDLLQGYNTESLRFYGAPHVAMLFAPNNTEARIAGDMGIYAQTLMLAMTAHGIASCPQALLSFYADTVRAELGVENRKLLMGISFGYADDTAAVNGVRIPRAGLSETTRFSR

[17] = mouse
zebrafish embryos = type: in vivo, zebrafish (Danio rerio)
Method: On examination of infected zebrafish embryos treated with BTZ043 it was observed that the compound affected embryo development (Fig 6A–G) especially at concentrations above 25 nM. […] These defects were also observed when uninfected embryos were exposed to BTZ043.
Figure 6 Effect of BTZ043 on M. marinum infected zebrafish embryo development. A–D M. marinum infected zebrafish embryos were treated with BTZ043 for 5 days at the concentrations indicated and photographed using a Leica DFC420C camera. The M strain was used for infection. E–F Images of the notochord from untreated and treated zebrafish, arrows indicate developmental abnormalities. G Analysis of zebrafish embryos displaying developmental abnormalities treated with BTZ043 (BTZ) or PBTZ169 (PBTZ) at the concentrations indicated.

M. marinum strain M [18] = type: in vivo, zebrafish (Danio rerio); conditions: 5 days treatment
in vivo = assay: in vivo
Method: Table S5. Principal pharmacokinetic properties1
1 See Figure S5 for primary data.
Compound levels were measured in serum from individual female mice (3/time point) that had received a single dose of 25 mg/kg. Maximum concentration (Cmax); area under the curve (AUC); apparent clearance.
Comparative pharmacokinetic analysis. After receiving a single dose
(25 mg/kg) of PBTZ169 or BTZ043 by gavage, groups of three female mice were sacrificed at the times indicated, blood was obtained by cardiac puncture and the drug levels in serum determined by LC-MS/MS technique (limit of quantification 10 μg/L).

[19] = human
M. tuberculosis DprE1 = M. tuberculosis DprE1 (Mycobacterium tuberculosis, UniProt P9WJF1); assay: DprE1 inhibition, two step peroxidase-coupled assay with Amplex Red; type: biochemical; conditions: 5 min incubation, 5 μM enzyme, 200 μM FPR
Sequence of M. tuberculosis DprE1 (P9WJF1 whole entry, looked up): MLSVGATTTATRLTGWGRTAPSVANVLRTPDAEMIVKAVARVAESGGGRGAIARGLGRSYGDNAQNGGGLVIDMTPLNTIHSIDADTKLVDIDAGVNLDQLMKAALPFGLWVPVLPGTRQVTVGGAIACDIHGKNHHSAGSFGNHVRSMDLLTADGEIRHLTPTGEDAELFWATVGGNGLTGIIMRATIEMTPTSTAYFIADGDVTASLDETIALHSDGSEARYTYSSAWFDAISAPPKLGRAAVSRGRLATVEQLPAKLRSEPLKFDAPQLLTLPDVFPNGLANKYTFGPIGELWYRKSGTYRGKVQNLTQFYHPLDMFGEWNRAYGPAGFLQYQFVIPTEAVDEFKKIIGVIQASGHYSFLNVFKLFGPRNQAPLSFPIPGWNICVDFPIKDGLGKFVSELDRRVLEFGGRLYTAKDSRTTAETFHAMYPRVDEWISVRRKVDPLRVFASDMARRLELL

[20] = Table 1, H37Rv, REMA, read-out: MIC M. tuberculosis
[21] = Table S1, M. tuberculosis H37Rv, read-out: MIC
[22] = female, mouse, in vivo, po, 25 mg/kg

O=c1nc(N2CCN(CCC3CCCCC3)CC2)sc2c([N+](=O)[O-])cc(C(F)(F)F)cc12 [PBTZ129]
MIC (M. tuberculosis H37Rv [1]; [20]): 0.00019 µg/mL (≈ 0.000404 µM)
MIC (M. tuberculosis H37Rv [1]; [21]): 0.00019 µg/mL (≈ 0.000404 µM)

NNC(=O)c1ccncc1 [INH, isoniazid]
MIC (M. tuberculosis H37Rv [2]): 0.125 µg/mL (≈ 0.911 µM)
MIC [3]: > 20 µg/mL
MIC [4]: > 20 µg/mL
MIC [5]: > 20 µg/mL
MIC [6]: > 20 µg/mL
MIC [7]: > 20 µg/mL
MIC [8]: > 20 µg/mL
MIC [9]: > 20 µg/mL
MIC [10]: > 20 µg/mL
MIC [11]: 0.125 µg/mL (≈ 0.911 µM)

O=c1nc(N2CCN(CCCCOc3ccccc3)CC2)sc2c([N+](=O)[O-])cc(C(F)(F)F)cc12 [PBTZ137]
MIC (M. tuberculosis H37Rv [1]; [20]): 0.0015 µg/mL (≈ 0.00295 µM)
MIC (M. tuberculosis H37Rv [1]; [21]): 0.0015 µg/mL (≈ 0.00295 µM)

CO[C@H]1/C=C/O[C@@]2(C)Oc3c(C)c(O)c4c(O)c(c(/C=N/N5CCN(C)CC5)c(O)c4c3C2=O)NC(=O)/C(C)=C\C=C\[C@H](C)[C@H](O)[C@@H](C)[C@@H](O)[C@@H](C)[C@H](OC(C)=O)[C@@H]1C [RIF, rifampicin]
MIC99 (M. bolletii 1999-0888): 50 µg/mL (≈ 60.8 µM)
MIC99 (M. bovis BCG Pasteur): 0.001 µg/mL (≈ 0.00122 µM)
MIC99 (M. smegmatis mc^2155): 0.5 µg/mL (≈ 0.608 µM)
MIC99 (M. vaccae ATCC 15483): 100 µg/mL (≈ 122 µM)
MIC99 (M. massiliense 2005-0484): 25 µg/mL (≈ 30.4 µM)
MIC99 (M. smegmatis GM22): 1 µg/mL (≈ 1.22 µM)
MIC99 (C. diphtheriae DSM 44123): 0.0008 µg/mL (≈ 0.000972 µM)
MIC99 (M. marinum Strain M [12]): 0.39 µg/mL (≈ 0.474 µM)
MIC99 (M. tuberculosis H37Rv [1]; M. tuberculosis H37Rv): 0.001 µg/mL (≈ 0.00122 µM)
MIC99 (C. glutamicum ATCC 13032): 0.004 µg/mL (≈ 0.00486 µM)
MIC99 (M. abscessus 2005-0524): 6.25 µg/mL (≈ 7.59 µM)
MIC99 (M. avium ATCC 15769): 25 µg/mL (≈ 30.4 µM)
MIC99 (M. tuberculosis MDR_CHUV): > 100 µg/mL
MIC99 (M. bovis BCG BN2): 0.0008 µg/mL (≈ 0.000972 µM)

NC(=O)N1c2ccccc2C=Cc2ccccc21 [Carbamazepine]
microsomal CLint (in vitro [13]): 1.1 µL/min/mg
microsomal CLint (in vitro [14]): 0.5 µL/min/mg

CCCCCCCN1CCN(c2nc(=O)c3cc(C(F)(F)F)cc([N+](=O)[O-])c3s2)CC1 [PBTZ134]
reduction of bacterial burden in the spleens, fold more than BTZ043 (M. tuberculosis H37Rv [15]; 50 mg/kg per day, 28 days): 10 fold
MIC (M. tuberculosis H37Rv [1]; [20]): 0.00019 µg/mL (≈ 0.000414 µM)
MIC (M. tuberculosis H37Rv [1]; [21]): 0.00019 µg/mL (≈ 0.000414 µM)
NfnB-mediated reduction, species found by LC-MS [16]: as susceptible to NfnB-mediated reduction as BTZ043

C[C@H]1COC2(CCN(c3nc(=O)c4cc(C(F)(F)F)cc([N+](=O)[O-])c4s3)CC2)O1 [BTZ043, 2-[(2S)-2-methyl-1,4-dioxa-8-azaspiro[4.5]dec-8-yl]-8-nitro-6-(trifluoromethyl)-4H-1,3-benzothia-zin-4-one]
microsomal CLint (in vitro [13]): 12.2 µL/min/mg
MIC99 (M. bolletii 1999-0888): > 100 µg/mL
MIC99 (M. bovis BCG Pasteur): 0.001 µg/mL (≈ 0.00232 µM)
MIC99 (M. smegmatis mc^2155): 0.001 µg/mL (≈ 0.00232 µM)
MIC99 (M. vaccae ATCC 15483): > 100 µg/mL
clearance on incubation with microsomes (in words) [17]: medium clearance values
MIC99 (M. massiliense 2005-0484): > 100 µg/mL
microsomal CLint (in vitro [14]): 16 µL/min/mg
TD50 (HepG2 human cell line; HepG2): 5 µg/mL
TD50 (HepG2 human cell line; HepG2, REMA, triplicate, toxic dose inhibiting 50% of the population): 5 µg/mL
TD99 (HepG2 human cell line; HepG2, REMA, triplicate, toxic dose inhibiting 99% of the population): 25 µg/mL
selectivity index (HepG2 human cell line; HepG2 cytotoxicity relative to MIC): > 10 000
MIC (M. smegmatis GM22; GM22, read-out: MIC for GM22): 0.05 µg/mL (≈ 0.116 µM)
MIC99 (M. smegmatis GM22): 0.031 µg/mL (≈ 0.0719 µM)
MIC99 (C. diphtheriae DSM 44123): 0.06 µg/mL (≈ 0.139 µM)
embryos affected (notochord defects, shortened Anterior-Posterior axis) (zebrafish embryos; 25 nM): 60.4%
embryos affected (notochord defects, shortened Anterior-Posterior axis) (zebrafish embryos; 50 nM): 76.7%
bacterial burden in the lungs lower than untreated control (M. tuberculosis H37Rv [15]; 50 mg/kg per day, 28 days): 0.6 logs
bacterial burden in the spleens lower than untreated control (M. tuberculosis H37Rv [15]; 50 mg/kg per day, 28 days): 1.7 logs
reduction of bacterial burden in the lungs and spleens (M. tuberculosis H37Rv [15]; dose escalation study, 50 mg/kg, four weeks): 1 log
MIC99 (M. marinum Strain M [12]): 0.0007 µg/mL (≈ 0.00162 µM)
effect on the infection in zebrafish embryos (M. marinum strain M [18]; 5 nM): no significant effect
bacterial burden in infected zebrafish embryos (fluorescence) (M. marinum strain M [18]; 25 or 50 nM): almost no bacteria were present
Cmax (in vivo; [22]): 1920 ng/mL
half-life (in vivo; [22]): 1.67 h
k el (in vivo; [22]): 0.000116 s⁻¹
AUC (in vivo; serum, female mice, single dose 25 mg/kg by gavage, non-compartmental): 259829 µg·min/L
clearance on incubation with microsomes (in words) [19]: medium clearance values
MIC99 (M. tuberculosis H37Rv [1]; M. tuberculosis H37Rv): 0.001 µg/mL (≈ 0.00232 µM)
NfnB-mediated reduction, species found by LC-MS [16]: almost entirely converted to its hydroxylamino analogue
concentration giving full inhibition of DprE1 (M. tuberculosis DprE1): 20 µM
MIC99 (C. glutamicum ATCC 13032): 0.063 µg/mL (≈ 0.146 µM)
MIC99 (M. abscessus 2005-0524): > 100 µg/mL
MIC99 (M. avium ATCC 15769): > 100 µg/mL
MIC99 (M. tuberculosis MDR_CHUV): 0.002 µg/mL (≈ 0.00464 µM)
MIC99 (M. bovis BCG BN2): >100 µg/mL
fold increased resistance conferred by the Cys387Ser mutation in DprE1 (M. bovis BCG BN2): > 10 000 fold

O=c1nc(N2CCN(CCCCc3ccccc3)CC2)sc2c([N+](=O)[O-])cc(C(F)(F)F)cc12 [PBTZ139]
MIC (M. tuberculosis H37Rv [1]; [20]): 0.00037 µg/mL (≈ 0.000751 µM)
MIC (M. tuberculosis H37Rv [1]; [21]): 0.00037 µg/mL (≈ 0.000751 µM)
